Results from patent US8795630B2, “Butyrylcholinesterase ligands as diagnostic tools and treatment for diseases of the nervous system” (Treventis Corporation, priority 2008, dated 2014).

Assays:
[1] = biological target: T1, BuChE (Homo sapiens, UniProt P06276); test: Butyrylcholinesterase in vitro assay (hydrolysis of ligand followed by UV/Vis repetitive scans); format: biochemical; details: phosphate buffer pH 8.0; change of absorbance in repeated scans
Experimental: In Examples 39-54, interaction of the ligands with BuChE was determined by measuring the rate of the hydrolysis of the ligand in a buffered solution containing the enzyme. All ligands used in the assay were dissolved in a minimal amount of acetonitrile to form a ligand solution. 0.1 M Phosphate buffer PH 8.0 was prepared as to the above specifications. The Assay was carried out by mixing 0.1 μmol of ligand solution with 5 μL of BuChE stock solution and bringing the volume in a quartz cuvette of 1 cm path length to 1.5 mL with phosphate buffer. Scans using an UltraSpec 2100 Pro UV/Visible spectrophotometer over a wavelength of 200-900 nm monitored the rate of hydrolysis of the ligand by the enzyme. Change of absorbance in the spectrum indicated hydrolysis of the ligand by the enzyme. The results of these experiments generally indicate that enzymatic hydrolysis of the compounds does occur in the presence of BuChE.

[2] = biological target: human recombinant AChE (Homo sapiens, UniProt P22303); test: Acetylcholinesterase in vitro assay (hydrolysis of ligand followed by UV/Vis repetitive scans); format: biochemical; details: phosphate buffer pH 8.0; change of absorbance in repeated scans
Chain of human recombinant AChE (P22303 32-614): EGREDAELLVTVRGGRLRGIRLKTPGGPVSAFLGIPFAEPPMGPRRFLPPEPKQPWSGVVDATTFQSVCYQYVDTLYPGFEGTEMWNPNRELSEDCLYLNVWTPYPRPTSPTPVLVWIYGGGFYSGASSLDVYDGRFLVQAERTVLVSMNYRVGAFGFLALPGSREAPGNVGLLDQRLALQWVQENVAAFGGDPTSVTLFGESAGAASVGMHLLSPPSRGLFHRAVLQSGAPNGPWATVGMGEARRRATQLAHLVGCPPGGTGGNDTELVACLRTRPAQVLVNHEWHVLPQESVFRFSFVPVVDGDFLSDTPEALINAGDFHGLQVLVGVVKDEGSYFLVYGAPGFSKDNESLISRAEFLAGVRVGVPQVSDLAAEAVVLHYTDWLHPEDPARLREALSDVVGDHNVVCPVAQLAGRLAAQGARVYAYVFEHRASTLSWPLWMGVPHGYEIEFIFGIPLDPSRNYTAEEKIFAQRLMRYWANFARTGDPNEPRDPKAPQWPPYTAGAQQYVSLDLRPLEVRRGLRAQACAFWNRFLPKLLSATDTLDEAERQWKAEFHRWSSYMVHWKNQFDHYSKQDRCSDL
Experimental: In Examples 23-28, the interaction of the ligands with AChE was determined by measuring the rate of hydrolysis of the ligand in a buffered solution containing the enzyme. AChE stock solution consisted of 240 μg of human recombinant AChE dissolved in 1.5 mL of 0.1% aq. Gelatin. All ligands used in the assay were dissolved in a minimal amount of acetonitrile to form a ligand solution. 0.1 M Phosphate buffer PH 8.0 consisted of 1.2 g of NaH2PO4 dissolved in 100 mL of water and adjusted to the appropriate pH. The Assay was carried out by mixing 0.1 μmole of ligand solution with 5 μL of AChE stock solution and bringing the volume in a quartz cuvette of 1 cm path length to 1.5 mL with phosphate buffer. Scans using an UltraSpec 2100 Pro UV/Visible spectrophotometer over a wavelength of 200-900 nm monitored the rate of hydrolysis of the ligand by the enzyme. Change of absorbance in the spectrum indicated hydrolysis of the ligand by the enzyme.

[3] = biological target: T1, BuChE; test: Michaelis-Menten constant and maximum reaction velocity measurement (Lineweaver-Burk plot); format: biochemical; details: room temperature, λ=285 nm, average, N=3
Experimental: In Example 55, Km and relative Vmax values were determined for compounds identified to be hydrolyzed by BuChE. The assay was carried out by mixing 1 uL of BuChE stock solution in 1.4 mL of phosphate buffer. Absorbance of this solution was calibrated to zero and the reaction commenced with the addition of 100 μL of a solution of ligand in 100% acetonitrile. The reactions were carried out at room temperature. The rate of change of absorbance (ΔA/min), reflecting the rate of hydrolysis of the ligand by enzyme was recorded every 3 seconds for a total of 36 seconds using a Milton-Roy uv-visible spectrophotometer set at λ=285 nm.
A Lineweaver-Burk plot was used in order to determine the Km (substrate concentration at which the reaction rate reaches half of its maximum value), and relative Vmax (maximum reaction velocity), values. Average Michealis-Menten constant and maximum reaction velocity values for a selection compounds (N=3) were measured, and the results are set forth in Table 1 below.

[4] = SPECT imaging and brain fraction radiation counts after injection of radiolabeled compound; format: in vivo; details: rat; after injection and several hours of SPECT imaging; sacrificed and perfused
Experimental: Shortly after the synthesis and purification detailed in Example 21, a rat was injected with the radiolabeled compound (6-oxo-1,6-dihydropyridin-2-yl)methyl-4-^123iodobenzoate and SPECT images were taken at regular time points for several hours.
After imaging, the rat was sacrificed and perfused. Radiation counts from HPLC attributable to (1,6-dihydro-6-oxopyridin-2-yl)methyl 4-^123iodobenzoate remaining in the brain fraction are shown in FIG. 4.

T1 sequence (P06276 29-602): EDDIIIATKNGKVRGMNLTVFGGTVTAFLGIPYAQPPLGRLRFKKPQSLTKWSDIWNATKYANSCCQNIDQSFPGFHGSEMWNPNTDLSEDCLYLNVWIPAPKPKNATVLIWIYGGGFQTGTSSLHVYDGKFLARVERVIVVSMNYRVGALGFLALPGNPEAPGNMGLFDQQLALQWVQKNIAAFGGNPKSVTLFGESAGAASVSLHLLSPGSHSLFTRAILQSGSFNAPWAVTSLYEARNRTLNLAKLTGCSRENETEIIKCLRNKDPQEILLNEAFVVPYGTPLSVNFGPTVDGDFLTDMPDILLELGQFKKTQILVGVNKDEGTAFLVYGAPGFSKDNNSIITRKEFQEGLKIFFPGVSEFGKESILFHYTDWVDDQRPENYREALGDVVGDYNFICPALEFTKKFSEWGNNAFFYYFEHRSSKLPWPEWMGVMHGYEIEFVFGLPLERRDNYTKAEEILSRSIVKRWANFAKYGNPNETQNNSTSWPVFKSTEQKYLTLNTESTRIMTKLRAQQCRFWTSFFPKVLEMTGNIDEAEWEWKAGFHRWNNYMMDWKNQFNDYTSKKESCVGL

## CN1CCC(OC(=O)c2cccc(C#N)c2)CC1 [1′-methylpiperidin-4′-yl 3-cyanobenzoate]
[1]
  enzymatic hydrolysis of the compound in the presence of BuChE: does occur
[2]
  enzymatic hydrolysis of the compound in the presence of AChE: does not occur

## CN1CCC(OC(=O)c2cccc(I)c2)CC1 [1′-methylpiperidin-4′-yl 3-iodobenzoate]
[1]
  enzymatic hydrolysis of the compound in the presence of BuChE: does occur
[2]
  enzymatic hydrolysis of the compound in the presence of AChE: does not occur

## CN1CCC(OC(=O)c2ccc(C#N)cc2)CC1 [1′-methylpiperidin-4′-yl 4-cyanobenzoate]
[2]
  enzymatic hydrolysis of the compound in the presence of AChE: does not occur

## CN1CCC(OC(=O)c2ccccc2)CC1 [1′-methylpiperidin-4′-yl benzoate]
[1]
  enzymatic hydrolysis of the compound in the presence of BuChE: does occur
[2]
  enzymatic hydrolysis of the compound in the presence of AChE: does not occur

## O=C(OCc1ccc[nH]c1=O)c1ccc(I)cc1 [Example 1, (1,2-dihydro-2-oxopyridin-3-yl)methyl 4-iodobenzoate]
[1]
  enzymatic hydrolysis of the compound in the presence of BuChE: does occur
[2]
  enzymatic hydrolysis of the compound in the presence of AChE: does not occur

## O=C(OCc1ccc[nH]c1=O)c1ccc(F)cc1 [Example 2, (1,2-dihydro-2-oxopyridin-3-yl)methyl 4-fluorobenzoate]
[1]
  enzymatic hydrolysis of the compound in the presence of BuChE: does occur
[2]
  enzymatic hydrolysis of the compound in the presence of AChE: does not occur

## N#Cc1ccc(C(=O)OCc2ccc[nH]c2=O)cc1 [Example 3, (1,2-dihydro-2-oxopyridin-3-yl)methyl 4-cyanobenzoate]
[1]
  enzymatic hydrolysis of the compound in the presence of BuChE: does occur
[2]
  enzymatic hydrolysis of the compound in the presence of AChE: does not occur

## O=C(OCc1cccc(=O)[nH]1)c1ccc(I)cc1 [Example 4, (1,6-dihydro-6-oxopyridin-2-yl)methyl 4-iodobenzoate]
[3]
  Vmax (relative maximum reaction velocity): 9.7 ± 1.7 ΔA min^−1
[1]
  enzymatic hydrolysis of the compound in the presence of BuChE: does occur
[2]
  enzymatic hydrolysis of the compound in the presence of AChE: does not occur

## O=C(OCc1cccc(=O)[nH]1)c1ccc(F)cc1 [Example 5, (1,6-dihydro-6-oxopyridin-2-yl)methyl 4-fluorobenzoate]
[1]
  enzymatic hydrolysis of the compound in the presence of BuChE: does occur
[2]
  enzymatic hydrolysis of the compound in the presence of AChE: does not occur

## N#Cc1ccc(C(=O)OCc2cccc(=O)[nH]2)cc1 [Example 6, (1,6-dihydro-6-oxopyridin-2-yl)methyl 4-cyanobenzoate]
[1]
  enzymatic hydrolysis of the compound in the presence of BuChE: does occur
[2]
  enzymatic hydrolysis of the compound in the presence of AChE: does not occur

## CN1CCC(OC(=O)c2ccc(I)cc2)CC1 [Example 7, 1′-methylpiperidin-4′-yl 4-iodobenzoate]
[3]
  Km: 26 ± 2 µM
  Vmax (relative maximum reaction velocity): 8.4 ± 0.4 ΔA min^−1
[1]
  enzymatic hydrolysis of the compound in the presence of BuChE: does occur
[2]
  enzymatic hydrolysis of the compound in the presence of AChE: does not occur

## CN1CCC(OC(=O)c2ccc(F)cc2)CC1 [Example 8, 1′-methylpiperidin-4′-yl 4-fluorobenzoate]
[3]
  Km: 753 ± 115 µM
  Vmax (relative maximum reaction velocity): 36 ± 6 ΔA min^−1
[1]
  enzymatic hydrolysis of the compound in the presence of BuChE: does occur
[2]
  enzymatic hydrolysis of the compound in the presence of AChE: does not occur

## CN1CCC(OC(=O)c2ccc(C#N)cc2)CC1 [Example 9, 1′-methylpiperidin-4′-yl 4-cyanobenzoate]
[3]
  Km: 48 ± 18 µM
  Vmax (relative maximum reaction velocity): 12 ± 3 ΔA min^−1
[1]
  enzymatic hydrolysis of the compound in the presence of BuChE: does occur

## CN1CCC(OC(=O)c2ccccc2)CC1 [Example 10, 1′-methylpiperidin-4′-yl benzoate]
[3]
  Km: 68 ± 9 µM
  Vmax (relative maximum reaction velocity): 6.8 ± 0.5 ΔA min^−1

## CN1CC[C@H](OC(=O)c2ccc(I)cc2)C1 [Example 14, (5)-1′-methylpyrrolidin-3′-yl 4-iodobenzoate]
[3]
  Km: 16 ± 4 µM
  Vmax (relative maximum reaction velocity): 6.1 ± 0.5 ΔA min^−1
[1]
  enzymatic hydrolysis of the compound in the presence of BuChE: does occur
[2]
  enzymatic hydrolysis of the compound in the presence of AChE: does not occur

## CN1CC[C@H](OC(=O)c2ccc(C#N)cc2)C1 [Example 15, (S)-1′-methylpyrrolidin-3′-yl-4-cyanobenzoate]
[3]
  Km: 200 ± 52 µM
  Vmax (relative maximum reaction velocity): 16 ± 4 ΔA min^−1
[1]
  enzymatic hydrolysis of the compound in the presence of BuChE: does occur
[2]
  enzymatic hydrolysis of the compound in the presence of AChE: does not occur

## CN1CC[C@@H](OC(=O)c2ccc(I)cc2)C1 [Example 16, R-1′-methylpyrrolidin-3′-yl 4-iodobenzoate]
[3]
  Km: 144 ± 121 µM
  Vmax (relative maximum reaction velocity): 10 ± 9 ΔA min^−1
[1]
  enzymatic hydrolysis of the compound in the presence of BuChE: does occur
[2]
  enzymatic hydrolysis of the compound in the presence of AChE: does not occur

## CN1CC[C@@H](OC(=O)c2ccc(C#N)cc2)C1 [Example 17, R-1′-methylpyrrolidin-3′-yl-4-cyanobenzoate]
[3]
  Km: 198 ± 18 µM
  Vmax (relative maximum reaction velocity): 30 ± 3 ΔA min^−1
[1]
  enzymatic hydrolysis of the compound in the presence of BuChE: does occur
[2]
  enzymatic hydrolysis of the compound in the presence of AChE: does not occur

## O=C(OCc1cccc(=O)[nH]1)c1ccc([123I])cc1 [Example 21, (6-oxo-1,6-dihydropyridin-2-yl)methyl 4-^123iodobenzoate]
[4]
  brain penetration (radiation counts in brain fraction, FIG. 4): penetrates into the brain

## CCCC(=O)SCC[N+](C)(C)C [butyrylthiocholine, reference compound]
[3]
  Km: 30.6 ± 7 µM
